Reference: PMC11011439, “Influence of Molecular Design on the Tumor Targeting and Biodistribution of PSMA-Binding Tracers Labeled with Technetium-99m” (International Journal of Molecular Sciences, 2024)
Marks after values point to notes of the source that are not given here.

Columns and labels:
[1] = Stability of the [99mTc]Tc-maG3 complex in PBS and under cysteine challenge (radio-HPLC); type: physicochemical
Protocol: The iTLC data were cross-validated using radio-HPLC analysis, performed using a Hitachi Chromaster HPLC system with a radioactivity detector and Phenomenex Luna® C18 column (100 Å; 150 × 4.6 mm; 5 µm) at room temperature (20 °C), in the following conditions: solvent A: 0.1% trifluoroacetic acid (TFA) in H2O, solvent B: 0.1% TFA in acetonitrile, flow rate: 1 mL/min. For identity and purity analysis of [^99mTc]Tc-BQ0411 and [^99mTc]Tc-BQ0412, the method with a gradient from 5 to 60% solvent B over 20 min was used.
To evaluate the chemical stability of the [^99mTc]Tc-maG3 complex, fractions of radiolabeled conjugates (10 µL, 0.25 µg) were incubated with a 300× molar excess of cysteine or with PBS at room temperature for 1 h. The test was run in triplicate.

[2] = Octanol/water distribution coefficient (LogD); type: physicochemical; conditions: n-octanol / Milli-Q water
Protocol: The LogD was determined experimentally based on the procedure described earlier. Briefly, the radiolabeled compound of interest was added to a LoBind Eppendorf tube (Eppendorf, Hamburg, Germany) containing Milli-Q water (500 μL) and n-octanol (500 μL), and the mixture was vortexed and centrifuged. Thereafter, three fractions from each phase were collected and the activity was measured using a gamma counter. The LogD was calculated by dividing the average activity measured in octanol by the average activity measured in water.

[3] = target: T1, PSMA (Homo sapiens, UniProt Q04609); experiment: In vitro binding specificity (saturation with non-labeled PSMA-11) on PC3-pip cells; conditions: 2 nM tracer, 250-fold molar excess of PSMA-11, 1 h, 37 °C
T1 construct: expressed in transfected cells; host or cells: PC3-pip cells (from Prof. Martin G. Pomper, Johns Hopkins University)
T1 sequence (Q04609 whole entry): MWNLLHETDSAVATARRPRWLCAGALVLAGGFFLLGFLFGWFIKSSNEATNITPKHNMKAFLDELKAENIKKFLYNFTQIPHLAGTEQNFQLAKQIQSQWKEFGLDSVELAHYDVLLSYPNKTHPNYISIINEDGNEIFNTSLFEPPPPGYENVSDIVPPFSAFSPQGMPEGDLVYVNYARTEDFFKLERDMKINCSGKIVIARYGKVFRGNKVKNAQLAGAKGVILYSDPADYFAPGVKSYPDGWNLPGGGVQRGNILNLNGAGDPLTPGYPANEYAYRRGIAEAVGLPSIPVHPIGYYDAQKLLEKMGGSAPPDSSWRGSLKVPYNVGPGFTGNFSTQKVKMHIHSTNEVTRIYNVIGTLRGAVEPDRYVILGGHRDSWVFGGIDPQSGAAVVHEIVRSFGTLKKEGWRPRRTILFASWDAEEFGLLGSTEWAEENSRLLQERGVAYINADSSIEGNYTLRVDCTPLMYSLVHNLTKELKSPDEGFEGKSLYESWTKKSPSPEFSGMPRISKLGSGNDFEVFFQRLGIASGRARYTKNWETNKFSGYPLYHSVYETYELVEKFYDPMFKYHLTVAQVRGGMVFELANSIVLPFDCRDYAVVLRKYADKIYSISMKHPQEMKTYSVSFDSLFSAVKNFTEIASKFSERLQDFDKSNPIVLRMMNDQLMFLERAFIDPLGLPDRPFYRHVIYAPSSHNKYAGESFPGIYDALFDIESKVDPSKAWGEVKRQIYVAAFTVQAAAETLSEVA
Protocol: For the in vitro binding specificity test, approximately 8 × 10^5 of PC3-pip cells per well were seeded in 6-well plates 24 h before the experiment. Cells in three control wells were pre-saturated with a 250-fold excess of non-labeled PSMA-11 15 min before the addition of radiotracers, while the second set was treated with complete media. After 15 min of incubation at room temperature, [^99mTc]Tc-labeled radioligands were added to all wells to reach a concentration of 2 nM. After one hour of incubation at 37 °C, the cells were washed with PBS solution, detached, and collected. Cell-associated activity was measured using a gamma counter and presented as the percentage of added activity.

[4] = target: T1, PSMA; experiment: Real-time binding kinetics on living PC3-pip cells (LigandTracer Yellow); conditions: 5 nM tracer, 1:2 interaction model
Protocol: The binding kinetics of [^99mTc]Tc-labeled BQ0411, BQ0412, and BQ0413 were measured in real time using LigandTracer Yellow Instruments (Ridgeview Instruments AB, Uppsala, Sweden) on PC3-pip cells, as described earlier. The activity binding was recorded at 5 nM on the radiolabeled tracers for 150 min. After measuring the binding kinetics, the medium containing the labeled tracer was replaced with fresh medium, and the dissociation was monitored over 7 h. […]

[5] = system: PC3-pip cells; experiment: Cellular processing (internalization) during continuous incubation; type: cell-based; conditions: 2 nM, 37 °C
Protocol: To evaluate the cellular processing of [^99mTc]Tc-labeled BQ0411 and BQ0412, PC3-pip cells were incubated with the radiolabeled tracer (2 nM), and at predetermined time points (1, 2, 4, and 8 h), cells were treated with 0.5 mL of 4 M urea solution in a 0.2 M glycine buffer, pH 2.5, for 5 min on ice. After that, the acidic supernatant was collected, and this fraction was considered to be the membrane-bound activity. To lyse the cells, 0.5 mL of 1 M sodium hydroxide solution was added and incubated at 37 °C for at least 20 min. The alkaline-containing solution was collected, and the basic fraction was considered to be the internalized activity.

[6] = Biodistribution in NMRI mice; type: in vivo; conditions: for activity in carcass / activity in intestines with content / uptake in blood / uptake in kidney / uptake in liver / uptake in lung / uptake in salivary glands / uptake in spleen / uptake in stomach: 40 pmol/mouse iv
Protocol: Four NMRI mice were intravenously injected with 40 pmol of the radiotracer (60 kBq, the mass of the injected compound was adjusted with an unlabeled tracer). The mice were euthanized with a lethal intraperitoneal injection of ketamine/xylazine, followed by exsanguination at 3 and 24 h post-injection (pi). The organs of interest were collected, weighed, and measured for their activity content using a gamma counter. The uptake activity in organs was calculated as the percentage of injected activity per gram (%IA/g) for the blood, salivary glands, lungs, liver, spleen, stomach, and kidneys and as %IA for the remaining carcass and the rest of the intestines with content.

[7] = system: PSMA-expressing prostate cancer xenografts (PC3-pip); experiment: Biodistribution and tumor targeting in PC3-pip tumor-bearing mice; type: in vivo, BALB/c nu/nu mice; conditions: 3 h pi
Protocol: PSMA-expressing prostate cancer xenografts were implanted in BALB/c nu/nu mice by subcutaneous injection of PC3-pip cell suspension in PBS (10^7 cells/animal in 100 µL). The average tumor weight was 0.3 ± 0.2 g at the time of the experiment. Four mice per data point were used. Mice were intravenously injected with 5 nmol of the radiotracer (60 kBq, the mass of the injected compound was adjusted with an unlabeled tracer). The mice were euthanized 3 h pi, and the samples were treated as described above.

In the case of CC(=O)N[C@@H](CCCCNC(=O)C[N]1C(=O)C[N]2C(=O)C[N]3C(=O)C[S][99Tc-]132=[O])C(=O)NCCCCCCCC(=O)N[C@@H](Cc1ccc(O)cc1)C(=O)N[C@@H](Cc1ccc2ccccc2c1)C(=O)NCCCC[C@H](NC(=O)N[C@@H](CCC(=O)O)C(=O)O)C(=O)O [[^99mTc]Tc-BQ0412], the “release of activity under cysteine challenge” value ([1]; 300-fold molar excess of cysteine, room temperature, 1 h) is reported as “around 60%”, the “stability during incubation in PBS” value ([1]; PBS, room temperature, 1 h) is reported as “stable” and the “share of activity in radio-HPLC peak, retention time 6.2 min” value ([1]; cysteine challenge, radiolabeled product, speculated Tc–cysteine complex) is reported as 32.5%. The “share of activity in radio-HPLC peak, retention time 14.1 min” value ([1]; cysteine challenge, radiolabeled product, speculated intermediate transchelation product) was 25.5%, the “logD (octanol–water distribution coefficient)” value [2] was −2.3 ± 0.1 and the “binding to PC3-pip cells after pre-treatment with excess non-labeled PSMA-11” value [3] was “significantly (p ˂ 0.0001) decreased”. The ka1 [4] was 31000 M⁻¹ s⁻¹, the ka2 [4] was 46000 M⁻¹ s⁻¹ and the kd1 [4] was 1.4e-05 s⁻¹. The kd2 [4] was 1.6e-05 s⁻¹, the “internalized activity (of cell-associated activity)” value ([5]; 4 h of continuous incubation) was 43 ± 1% and the “internalized activity (of cell-associated activity)” value ([5]; after 4 h (8 h of continuous incubation)) was 32 ± 1%. For the same compound, the activity in carcass ([6]; 3 h pi) was 2.9 ± 0.1 *^,c %IA/sample, the “activity in intestines with content” value ([6]; 3 h pi) was 70 ± 7 *^,c %IA/sample and the uptake in blood ([6]; 3 h pi) was 0.5 ± 0.1 %IA/g. The uptake in kidney ([6]; 3 h pi) was 56 ± 9 *^,c %IA/g, the uptake in liver ([6]; 3 h pi) was 3 ± 1 *^,c %IA/g and the uptake in lung ([6]; 3 h pi) was 0.3 ± 0.1 *^,c %IA/g. The “uptake in salivary glands” value ([6]; 3 h pi) was 0.24 ± 0.03 *^,c %IA/g, the uptake in spleen ([6]; 3 h pi) was 0.23 ± 0.07 *^,c %IA/g and the uptake in stomach ([6]; 3 h pi) was 0.17 ± 0.03 *^,c %IA/g. The activity in carcass ([6]; 24 h pi) was 0.12 ± 0.03 ^c %IA/sample, the “activity in intestines with content” value ([6]; 24 h pi) was 0.16 ± 0.04 ^c %IA/sample and the uptake in blood ([6]; 24 h pi) was 0.016 ± 0.002 ^c %IA/g. The uptake in kidney ([6]; 24 h pi) was 1.1 ± 0.3 ^c %IA/g, the uptake in liver ([6]; 24 h pi) was 0.016 ± 0.004 ^c %IA/g and the uptake in lung ([6]; 24 h pi) was 0.014 ± 0.008 ^c %IA/g. For the same compound, the “uptake in salivary glands” value ([6]; 24 h pi) was 0.015 ± 0.006 ^c %IA/g, the uptake in spleen ([6]; 24 h pi) was 0.007 ± 0.005 %IA/g and the uptake in stomach ([6]; 24 h pi) was 0.07 ± 0.05 ^c %IA/g. The “uptake in intestines with content, fold higher than [99mTc]Tc-BQ0411” value ([6]; 3 h pi) was 1.6 fold, the “uptake in kidneys, fold lower than [99mTc]Tc-BQ0411” value ([6]; 3 h pi) was 2.3 fold and the “activity remaining in the body” value ([6]; 3 h pi, excluding activity in the intestines with content) was 20–30 % from injected. For the same compound, the “washout of activity from kidneys” value ([6]; 24 h pi compared to 3 h pi) was 98%, the activity in carcass ([7]; 5 nmol/mouse iv) was 2.6 ± 1.3 %IA/sample and the “activity in intestines with content” value ([7]; 5 nmol/mouse iv) was 69 ± 17 ^c %IA/sample. The uptake in blood ([7]; 5 nmol/mouse iv) was 0.5 ± 0.1 %IA/g, the uptake in bone ([7]; 5 nmol/mouse iv) was 0.15 ± 0.07 %IA/g and the uptake in kidney ([7]; 5 nmol/mouse iv) was 16 ± 5 %IA/g. It also gave an uptake in liver ([7]; 5 nmol/mouse iv) of 0.5 ± 0.1 %IA/g, an uptake in lung ([7]; 5 nmol/mouse iv) of 0.5 ± 0.1 %IA/g and an uptake in muscle ([7]; 5 nmol/mouse iv) of 0.2 ± 0.1 %IA/g. The uptake in pancreas ([7]; 5 nmol/mouse iv) was 0.4 ± 0.3 %IA/g, the “uptake in salivary glands” value ([7]; 5 nmol/mouse iv) was 0.2 ± 0.1 ^c %IA/g and the “uptake in small intestine” value ([7]; 5 nmol/mouse iv) was 1.2 ± 0.7 ^c %IA/g. For the same compound, the uptake in spleen ([7]; 5 nmol/mouse iv) was 0.6 ± 0.3 %IA/g, the uptake in stomach ([7]; 5 nmol/mouse iv) was 0.3 ± 0.2 %IA/g and the uptake in tumor ([7]; 5 nmol/mouse iv) was 17 ± 5 %IA/g. For the same compound, the tumor-to-blood ratio ([7]; 5 nmol/mouse) was 35 ± 4 ^c, the tumor-to-bone ratio ([7]; 5 nmol/mouse) was 128 ± 38 and the tumor-to-kidney ratio ([7]; 5 nmol/mouse) was 1.1 ± 0.1. For the same compound, the tumor-to-liver ratio ([7]; 5 nmol/mouse) was 35 ± 5 ^c, the tumor-to-lung ratio ([7]; 5 nmol/mouse) was 39 ± 6 and the tumor-to-muscle ratio ([7]; 5 nmol/mouse) was 143 ± 58 ^c. The tumor-to-pancreas ratio ([7]; 5 nmol/mouse) was 82 ± 33, the tumor-to-salivary ratio ([7]; 5 nmol/mouse) was 90 ± 16 ^c and the tumor-to-small intestine ratio ([7]; 5 nmol/mouse) was 19 ± 9 ^c. The tumor-to-spleen ratio ([7]; 5 nmol/mouse) was 26 ± 6, the tumor-to-stomach ratio ([7]; 5 nmol/mouse) was 77 ± 29 and the “activity uptake in the gastrointestinal tract (with content)” value [7] was “over 40 %IA”.
